For assay [1], the system named is infant foreskin fibroblasts. Briefly: Fibroblast chemotaxis in modified Boyden chambers (incl. checkerboard and deactivation studies). Type of assay: cell-based, human. The settings on record: for fibroblast chemotaxis / migration (in words): peptide in lower compartment of modified Boyden chamber; for Mean Fibroblasts per 20 OIF + SEM: Experiment 1, lower compartment: TGF-β1 50 pg/ml, peptide 368-374 1.4 × 10^-5 M, peptide 364-378 6.7 × 10^-7 M, fibronectin 20 μg/ml. Here is the method: Target cells used in in vitro chemotaxis assays were infant foreskin fibroblasts obtained by establishing monolayer cultures from explants of tissue. Cells were maintained in Eagle's minimum essential medium (MEM) supplemented with non-essential amino acids, antibiotics, 50 ug/ml ascorbic acid, and 9% fetal calf serum (FCS). Cells were passaged by trypsinization every 3-5 days.
Infant foreskin fibroblasts were harvested from monolayer culture by gentle trypsinization, washed twice in serum-free Eagles's MEM and adjusted to a final concentration of 250,000 cells/ml. The cell suspension (0.4 ml) was added to the upper compartments of blind well modified Boyden chemotaxis chambers. The peptides of the invention being assayed for chemotactic activity were solubilized in glycylglycine (0.015M) buffered NaCl (0.14M), pH 7.2, hereinafter referred to as GGBS, and diluted 50% with serum-free MEM. Test substances were added to the lower compartment of the chemotaxis chambers. Gelatin-treated polycarbonate filters (8 micron pore size) were interposed between the lowest compartment and the upper cell compartment. Loaded chambers were incubated at 37° C. in a humidified atmosphere containing 5% CO2 for 150 minutes. After incubation, the chambers were disassembled, the filters removed, stained with hematoxylin, and mounted on glass cover slips. Fibroblast chemotaxis was quantitated by counting the number of fibroblasts in 20 oil immersion fields (OIF) that migrated and adhered to the lower surface of each filter. Samples were tested in quadruplicate and results are expressed as mean number of fibroblasts per 20 OIF±standard error of the mean (SEM). Chemotaxis neutralization studies were performed by adding TGF-β1 or fibronectin to the upper cell compartment and testing for effects on fibroblast migration to the TGF-β peptides.
Zigmond-Hirsch checkerboard analysis (Zigmond & Hirsch, J. Exptl. Med. 137:387, 1972) was performed to determine whether the 7-mer peptide 368-374 (Val Tyr Tyr Val Gly Arg Lys) induced chemotaxis of fibroblasts, monocytes and neutrophils.
Deactivation studies were utilized to determine whether the peptides of the invention containing the 7-mer peptide amino acid sequence induced chemotaxis via cellular receptors and mechanisms utilized by intact TGF-β.

The subject of assay [2] is human peripheral blood monocytes. As to the kind of experiment: Monocyte chemotaxis in modified Boyden chambers. Type of assay: cell-based. The settings on record: peptide in lower compartment of modified Boyden chamber. From the text:
(§1) Human peripheral blood neutrophils and monocytes, isolated from whole blood using standard techniques may also be used in the chemotaxis assays, in a manner similar to infant foreskin fibroblasts, to measure the chemotactic activity of the peptides towards inflammatory cells. Such cells may also be maintained in supplemented MEM as above, to which 5-10% FCS may be added. When using neutrophils and monocytes, instead of fibroblasts, the polycarbonate filters used in the modified Boyden chambers had pore sizes of 2 and 3 microns, respectively. As above, all assays were carried out in quadruplicate.
The following 7-mer peptides (peptides 368-374, corresponding to amino acids 368-374 of human TGF-β1): VYYVGRK (SEQ ID NO. 1), LYYIGKT (SEQ ID NO. 2), LYYVGRT (SEQ ID NO. 3), IYYVGRN (SEQ ID NO. 4) and IYYVGRT (SEQ ID NO. 5) were synthesized by the Merrifield technique, purified by HPLC, and tested at different concentrations in the same assay for their ability to stimulate chemotaxis of human peripheral blood monocytes in vitro modified Boyden chambers.

For assay [3], the system named is Human peripheral blood neutrophils. Briefly: Neutrophil chemotaxis in modified Boyden chambers. The settings on record: peptide in lower compartment of modified Boyden chamber. It is filed as cell-based.
Description: as §1

Assay [4] concerns infant foreskin fibroblasts. Briefly: Collagen production by fibroblasts (modified Peterofsky-Diegelman assay). It is filed as cell-based, human. Conditions: [3H]proline incorporation into collagenase-sensitive protein. The procedure:
The peptides of the invention were also found to stimulate collagen production by fibroblasts. Collagen production by fibroblasts in response to the peptides of the present invention was measured utilizing a modified Peterofsky-Diegelman assay. The assay is used to determine whether the peptides of the invention stimulate or inhibit collagen production by fibroblasts.
Low passage (4-12 subpassages) infant foreskin fibroblasts were plated out at a density of 10^5 cells/well in Falcon 3008 multiwell plates in complete maintenance medium containing 10% FCS. After cells reached confluency (72 hr), the medium was changed daily for 3 days, each time being replaced with serum-free maintenance medium containing fresh ascorbic acid. Samples (50 μl) were added to triplicate wells containing 450 μl serum-free MEM supplemented with fresh ascorbic acid and [^3 H]-proline (sp. act. 20 Ci/mmole), but no non-essential amino acids. After an additional 24 hr of culture, supernatants were reacted with protease-free bacterial collagenase to digest all collagen. Similar aliquots of unreacted supernatants and bacterial collagenase-treated supernatants were precipitated with cold 10% trichloroacetic acid (TCA) and were centrifuged for 5 minutes in a Beckman microfuge. Aliquots of the supernatants, after TCA precipitated proteins were pelleted, were placed in vials containing Hydrofluor and then were counted in a scintillation counter. CPM from TCA precipitated supernatants not reacted with bacterial collagenase were subtracted from each culture. The resulting CPM was a reflection of the collagen produced by that culture.
A modified Peterofsky-Diegelmann assay was used to screen peptide samples for their ability to stimulate or inhibit collagen production. Low passage (4-12 subpassages) infant foreskin fibroblast were plated out at a density of 10^5 cells/well of Falcon 3008 multiwell plates in complete maintenance medium containing 10% FCS. After cells reached confluency (72 hr) the medium was changed daily for 3 days, each time being replaced with serum-free maintenance medium containing fresh ascorbic acid. Samples ([…]) were added to triplicate wells containing […] serum free MEM supplemented with fresh ascorbic acid and [^3 H]-proline (sp. act. 20 Ci/mmole), but no non-essential amino acids. After an additional 24 hours of culture, supernatants were reacted with protease-free bacterial collagenase to digest all collagen. Similar aliquots of unreacted supernatants and bacterial collagenase-treated supernatants were precipitated with cold 10% trichloroacetic acid (TCA) and were centrifuged for 5 minutes in a Beckman microfuge. Aliquots of the supernatants, after TCA precipitated proteins were pelleted, were placed in vials containing Hydrofluor and then were counted in a scintillation counter. CPM from TCA precipitated supernatants not reacted with bacterial collagenase were subtracted from each culture. The resulting CPM was a reflection of the collagen produced by that culture.
Collagen production was measured following administration of the various 7-mer peptides 368-374 (SEQ ID NOs. 1-5) to fibroblasts. Peptides […] (SEQ ID NO. 1), LYYIGKT (SEQ ID NO. 2), LYYVGRT (SEQ ID NO. 3), IYYVGRN (SEQ ID NO. 4) and IYYVGRT (SEQ ID NO. 5) were synthesized by the Merrifield technique, purified by HPLC, and tested at different concentrations in the same assay for their ability to stimulate production of collagen in confluent cultures of infant foreskin fibroblasts. Collagen production was measured by incorporation of [^3 H]proline into collagenase-sensitive protein. All samples were tested in triplicate, and values represent the mean of triplicate determinations. Data are expressed as "% stimulation" of collagen production relative to control production in cultures with plain culture medium only added. […]

[5] abbreviates: Media added to upper compartment.
Where [6] appears, read: TGF-β1 (50 pg/ml) added to upper compartment.

In the case of “280-293: peptide derived from the N-terminal half of TGF-β1, residues 280-293 (ALDTNYCFSSTEKN; printed: Ala Leu Asp Thr Asn Tyr Cys Phe Ser Ser Thr Glu Lys Asn) [Peptide 280-293]”, the “fibroblast chemotaxis / migration (in words)” value in assay [1] is “none of the peptides derived from the N-terminal half of TGF-β1 (peptides 280-293, 296-322 and 328-354) were able to induce migration”. For the same substance, the “monocyte chemotaxis / migration (in words)” value in assay [2] was “none of the peptides derived from the N-terminal half of TGF-β1 (peptides 280-293, 296-322 and 328-354) were able to induce migration”. Further, the “neutrophil chemotaxis / migration (in words)” value in assay [3] is “none of the peptides derived from the N-terminal half of TGF-β1 (peptides 280-293, 296-322 and 328-354) were able to induce migration”.
With “296-322: peptide derived from the N-terminal half of TGF-β1, residues 296-322 (VRQLYIDFRKDLGWKWIHEPKGYHANF; printed: Val Arg Gln Leu Tyr Ile Asp Phe Arg Lys Asp Leu Gly Trp Lys Trp Ile His Glu Pro Lys Gly Tyr His Ala Asn Phe) [Peptide 296-322]”, the “fibroblast chemotaxis / migration (in words)” value in assay [1] is “none of the peptides derived from the N-terminal half of TGF-β1 (peptides 280-293, 296-322 and 328-354) were able to induce migration”. The “monocyte chemotaxis / migration (in words)” value in assay [2] is “none of the peptides derived from the N-terminal half of TGF-β1 (peptides 280-293, 296-322 and 328-354) were able to induce migration”. Moreover, the “neutrophil chemotaxis / migration (in words)” value in assay [3] is “none of the peptides derived from the N-terminal half of TGF-β1 (peptides 280-293, 296-322 and 328-354) were able to induce migration”.
Regarding “328-354: peptide derived from the N-terminal half of TGF-β1, residues 328-354 (PYIWSLDTQYSKVLALYNQHNPGASAA; printed: Pro Tyr Ile Trp Ser Leu Asp Thr Gln Tyr Ser Lys Val Leu Ala Leu Tyr Asn Gln His Asn Pro Gly Ala Ser Ala Ala) [Peptide 328-354]”, in assay [1], the “fibroblast chemotaxis / migration (in words)” value was “none of the peptides derived from the N-terminal half of TGF-β1 (peptides 280-293, 296-322 and 328-354) were able to induce migration”. Besides, the “monocyte chemotaxis / migration (in words)” value in assay [2] was “none of the peptides derived from the N-terminal half of TGF-β1 (peptides 280-293, 296-322 and 328-354) were able to induce migration”. Moreover, the “neutrophil chemotaxis / migration (in words)” value in assay [3] is “none of the peptides derived from the N-terminal half of TGF-β1 (peptides 280-293, 296-322 and 328-354) were able to induce migration”.
Consider Fibronectin [reference compound], for which the “Mean Fibroblasts per 20 OIF + SEM” value in assay [1] (setting [5]) is reported as 74 ± 2 Fibroblasts per 20 OIF; in assay [1] (setting [6]) it was 71 ± 6 Fibroblasts per 20 OIF.
In the case of IYYVGRN [7-mer peptide 368-374 homolog], the “fibroblast chemotaxis / migration (in words)” value in assay [1] is on record as “induced fibroblast chemotaxis at all of the concentration tested”. The “monocyte chemotaxis / migration (in words)” value in assay [2] is “induced monocyte chemotaxis at all of the concentrations tested”. Besides, in assay [4], the “collagen production by fibroblasts (in words)” value (“collagen production” for short) was “stimulated collagen production to some degree”.
As for IYYVGRT [7-mer peptide 368-374 homolog], the “fibroblast chemotaxis / migration (in words)” value in assay [1] is “induced fibroblast chemotaxis at all of the concentration tested”. Besides, the “monocyte chemotaxis / migration (in words)” value in assay [2] is listed as “induced monocyte chemotaxis at all of the concentrations tested”. Besides, in assay [4], the “collagen production” value is “stimulated collagen production to some degree”.
With LYYVGRT [7-mer peptide 368-374 homolog], the “fibroblast chemotaxis / migration (in words)” value in assay [1] was “induced fibroblast chemotaxis at all of the concentration tested”. Besides, the “monocyte chemotaxis / migration (in words)” value in assay [2] is “induced monocyte chemotaxis at all of the concentrations tested”. The “collagen production” value in assay [4] is recorded as “stimulated collagen production to some degree”.
As to “PIVYYVGRKPKVEQLSNMIVRS (PIVYYVGRKPKVEQLSNMIVRS) [Peptide 366-387]”, the “fibroblast chemotaxis / migration (in words)” value in assay [1] was “induced migration of fibroblasts, monocytes and neutrophils in a dose dependent fashion”. For the same substance, in assay [2], the “monocyte chemotaxis / migration (in words)” value is “induced migration of fibroblasts, monocytes and neutrophils in a dose dependent fashion”. In assay [3], the “neutrophil chemotaxis / migration (in words)” value was “induced migration of fibroblasts, monocytes and neutrophils in a dose dependent fashion”.
As to “TGF-β1: transforming growth factor β1, 50 pg/ml, chemoattractant control and deactivating agent [reference compound]”, the figures for the “Mean Fibroblasts per 20 OIF + SEM” value in assay [1] (setting [5]) and in assay [1] (setting [6]) were 7 ± 1 Fibroblasts per 20 OIF and 21 ± 2 Fibroblasts per 20 OIF, respectively.
In the case of “VPQALEPLPIVYYVGRKPKVEQLSN (VPQALEPLPIVYYVGRKPKVEQLSN) [Peptide 358-382]”, the “fibroblast chemotaxis / migration (in words)” value in assay [1] is “induced migration of fibroblasts, monocytes and neutrophils in a dose dependent fashion”. For the same substance, the “monocyte chemotaxis / migration (in words)” value in assay [2] is “induced migration of fibroblasts, monocytes and neutrophils in a dose dependent fashion”. The “neutrophil chemotaxis / migration (in words)” value in assay [3] is “induced migration of fibroblasts, monocytes and neutrophils in a dose dependent fashion”.
As for VSQDLEPLTILYYIGKTPKIEQLSNMIVKSC, in assay [4], the “collagen production” value was “stimulated collagen production”.

Values taken from patent publication US5824647A, “Chemotactic wound healing peptides” (priority 1995, dated 1998).
